Source: patent publication US9650340B2, “5-fluoro-N-(pyridin-2-yl)pyridin-2-amine derivatives containing a sulfoximine group” (BAYER PHARMA AKTIENGESELLSCHAFT, priority 2012, dated 2017)
Read-outs that look alike come from different tables or passages of the source.

Tests used:
[1] = target: T1, CDK9/CycT1 (Homo sapiens, UniProt P50750); assay: CDK9/CycT1 high ATP kinase assay (TR-FRET, 2 mM ATP); type: biochemical; settings: Method 1b
T1 construct: Recombinant full-length His-tagged human CDK9 and CycT1; His; purchased Invitrogen PV4131; host or cells: insect cells
Procedure: 1b. CDK9/CyeT1 High ATP Kinase Assay
CDK9/CycT1-inhibitory activity of compounds of the present invention at a high ATP concentration after preincubation of enzyme and test compounds was quantified employing the CDK9/CycT1 TR-FRET assay as described in the following paragraphs.
Recombinant full-length His-tagged human CDK9 and CycT1, expressed in insect cells and purified by Ni-NTA affinity chromatography, were purchase from Invitrogen (Cat. No PV4131). As substrate for the kinase reaction biotinylated peptide biotin-Ttds-[…] (C-terminus in amid form) was used which can be purchased e.g. form the company JERINI peptide technologies (Berlin, Germany). For the assay 50 nl of a 100 fold concentrated solution of the test compound in DMSO was pipetted into a black low volume 384 well microtiter plate (Greiner Bio-One, Frickenhausen, Germany), 2 μl of a solution of CDK9/CycT1 in aqueous assay buffer [50 mM Tris/HCl pH 8.0, 10 mM MgCl2, 1.0 mM dithiothreitol, 0.1 mM sodium ortho-vanadate, 0.01% (v/v) Nonidet-P40 (Sigma)] were added and the mixture was incubated for 15 min at 22° C. to allow pre-binding of the test compounds to the enzyme before the start of the kinase reaction. Then the kinase reaction was started by the addition of 3 μl of a solution of adenosine-tri-phosphate (ATP, 3.3 mM=>final conc. in the 5 μl assay volume is 2 mM) and substrate (1.67 μM=>final conc. in the 5 μl assay volume is 1 μM) in assay buffer and the resulting mixture was incubated for a reaction time of 25 min at 22° C.
The resulting mixture was incubated 1 h at 22° C. to allow the formation of complex between the phosphorylated biotinylated peptide and the detection reagents. Subsequently the amount of phosphorylated substrate was evaluated by measurement of the resonance energy transfer from the Eu-chelate to the streptavidine-XL. Therefore, the fluorescence emissions at 620 nm and 665 nm after excitation at 350 nm was measured in a HTRF reader, e.g. a Rubystar (BMG Labtechnologies, Offenburg, Germany) or a Viewlux (Perkin-Elmer). The ratio of the emissions at 665 nm and at 622 nm was taken as the measure for the amount of phosphorylated substrate.

[2] = test system: HeLa-MaTu-ADR, multidrug-resistant human cervical carcinoma cells; assay: Proliferation assay, HeLa-MaTu-ADR (crystal violet); type: cell-based; settings: 4 days, read-out: Inhibition of HeLa-MaTu-ADR cell proliferation IC50
Procedure: (§1) Cultivated tumour cells (HeLa, human cervical tumour cells, ATCC CCL-2; NCI-H460, human non-small cell lung carcinoma cells, ATCC HTB-177; A2780, human ovarian carcinoma cells, ECACC #93112519; DU 145, hormone-independent human prostate carcinoma cells, ATCC HTB-81; HeLa-MaTu-ADR, multidrug-resistant human cervical carcinoma cells, EPO-GmbH Berlin; Caco-2, human colorectal carcinoma cells, ATCC HTB-37; B16F10, mouse melanoma cells, ATCC CRL-6475) were plated at a density of 5,000 cells/well (DU145, HeLa-MaTu-ADR), 3,000 cells/well (NCI-H460, HeLa), 2,500 cells/well (A2780), 1,500 cells/well (Caco-2), or 1,000 cells/well (B16F10) in a 96-well multititer plate in 200 μL of their respective growth medium supplemented 10% fetal calf serum. After 24 hours, the cells of one plate (zero-point plate) were stained with crystal violet (see below), while the medium of the other plates was replaced by fresh culture medium (200 μl), to which the test substances were added in various concentrations (0 μM, as well as in the range of 0.001-10 μM; the final concentration of the solvent dimethyl sulfoxide was 0.5%). The cells were incubated for 4 days in the presence of test substances. Cell proliferation was determined by staining the cells with crystal violet: the cells were fixed by adding 20 μl/measuring point of an 11% glutaric aldehyde solution for 15 minutes at room temperature. After three washing cycles of the fixed cells with water, the plates were dried at room temperature. The cells were stained by adding 100 μl/measuring point of a 0.1% crystal violet solution (pH 3.0). After three washing cycles of the stained cells with water, the plates were dried at room temperature. The dye was dissolved by adding 100 μl/measuring point of a 10% acetic acid solution. The extinction was determined by photometry at a wavelength of 595 nm. The change of cell number, in percent, was calculated by normalization of the measured values to the extinction values of the zero-point plate (=0%) and the extinction of the untreated (0 μm) cells (=100%). The IC50 values (inhibitory concentration at 50% of maximal effect) were determined by means of a 4 parameter fit. Non-adherent MOLM-13 human acute myeloid leukemia cells (DSMZ ACC 554) were seeded at a density of 5,000 cells/well in a 96-well multititer plate in 100 μL of growth medium supplemented 10% fetal calf serum. After 24 hours, cell viability of one plate (zero-point plate) was determined with the Cell Titre-Glo Luminescent Cell Viability Assay (Promega), while 50 μL of test compound containing medium was added to the wells of the other plates (final concentrations in the range of 0.001-10 μM and DMSO controls; the final concentration of the solvent dimethyl sulfoxide was 0.5%). Cell viability was assessed after 72-hour exposure with the Cell Titre-Glo Luminescent Cell Viability Assay (Promega).

[3] = test system: Caco-2, human colorectal carcinoma cells; assay: Proliferation assay, Caco-2 (crystal violet); type: cell-based; settings: Homo sapiens, Caco-2, 96 h, Caco-2, 4 days; read-out: Inhibition of Caco-2 cell proliferation IC50
Procedure: as §1

[4] = test system: B16F10, mouse melanoma cells; assay: Proliferation assay, B16F10 (crystal violet); type: cell-based; settings: B16F10, 4 days, read-out: Inhibition of B16F10 cell proliferation IC50
Procedure: as §1

T1 sequence (P50750 whole entry): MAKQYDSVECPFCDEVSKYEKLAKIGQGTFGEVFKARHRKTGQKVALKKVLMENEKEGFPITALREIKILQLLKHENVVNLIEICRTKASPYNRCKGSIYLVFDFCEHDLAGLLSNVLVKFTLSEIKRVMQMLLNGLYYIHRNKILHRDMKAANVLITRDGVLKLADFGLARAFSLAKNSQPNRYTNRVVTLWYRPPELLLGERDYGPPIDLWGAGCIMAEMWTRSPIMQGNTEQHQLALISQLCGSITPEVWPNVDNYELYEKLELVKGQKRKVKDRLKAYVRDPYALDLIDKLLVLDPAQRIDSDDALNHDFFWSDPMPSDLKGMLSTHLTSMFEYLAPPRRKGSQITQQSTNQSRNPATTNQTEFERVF
T1 sequence (O60563 whole entry partner): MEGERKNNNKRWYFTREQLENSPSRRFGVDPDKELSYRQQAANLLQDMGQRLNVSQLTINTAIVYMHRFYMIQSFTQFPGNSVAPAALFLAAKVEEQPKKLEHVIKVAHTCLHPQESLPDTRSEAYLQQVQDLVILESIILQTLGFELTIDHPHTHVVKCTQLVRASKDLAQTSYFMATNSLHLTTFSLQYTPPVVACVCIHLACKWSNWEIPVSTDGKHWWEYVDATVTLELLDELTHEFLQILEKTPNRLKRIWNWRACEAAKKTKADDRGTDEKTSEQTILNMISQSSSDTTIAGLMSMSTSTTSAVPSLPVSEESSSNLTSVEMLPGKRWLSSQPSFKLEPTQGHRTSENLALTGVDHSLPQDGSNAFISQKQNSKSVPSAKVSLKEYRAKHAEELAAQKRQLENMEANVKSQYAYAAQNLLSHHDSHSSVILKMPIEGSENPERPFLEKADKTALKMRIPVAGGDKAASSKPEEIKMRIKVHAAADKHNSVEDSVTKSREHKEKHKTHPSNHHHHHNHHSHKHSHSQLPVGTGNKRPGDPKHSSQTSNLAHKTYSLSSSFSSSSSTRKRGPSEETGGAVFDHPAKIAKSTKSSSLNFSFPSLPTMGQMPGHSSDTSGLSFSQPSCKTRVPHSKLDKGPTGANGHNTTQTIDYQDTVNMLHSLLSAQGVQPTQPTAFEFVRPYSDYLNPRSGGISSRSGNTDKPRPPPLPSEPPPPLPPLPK

SMILES | IC50 [1] | IC50 ([2]; Homo sapiens, 96 h) | IC50 [3] | IC50 ([4]; Mus musculus, B16-F10, 96 h) | IC50 [2] | IC50 [4]
COc1cc(F)ccc1-c1cc(Nc2cc(CS(C)(=O)=NC(C)=O)ccn2)ncc1F (racemic) [Example 13, (rac)-N-{[(2-{[5-Fluoro-4-(4-fluoro-2-methoxyphenyl)pyridin-2-yl]amino}pyridin-4-yl)methyl](methyl)oxido-λ^6-sulfanylidene}acetamide] | 1 nM | 110 nM | 120 nM | 180 nM | – | –
CCOC(=O)N=S(C)(=O)Cc1cc(Nc2cc(-c3ccc(F)cc3OC)c(F)cn2)nc(OC)c1 (racemic) [Example 15, (rac)-ethyl{[(2-{[5-fluoro-4-(4-fluoro-2-methoxyphenyl)pyridin-2-yl]amino}-6-methoxypyridin-4-yl)methyl](methyl)oxido-λ^6-sulfanylidene}carbamate] | 1 nM | 31 nM | 39 nM | 45 nM | – | –
COc1cc(F)ccc1-c1cc(Nc2cc(CS(C)(=N)=O)cc(F)n2)ncc1F (racemic) [Example 17, (rac)-5-Fluoro-4-(4-fluoro-2-methoxyphenyl)-N-{6-fluoro-4-[(S-methylsulfonimidoyl)methyl]pyridin-2-yl}pyridin-2-amine] | 1.8 nM | 33 nM | 57 nM | 67 nM | – | –
COc1cc(F)ccc1-c1cc(Nc2cc(CS(C)(=O)=NC(=O)C(F)(F)F)cc(F)n2)ncc1F (racemic) [Example 18, (rac)-2,2,2-Trifluoro-N-{[(2-fluoro-6-{[5-fluoro-4-(4-fluoro-2-methoxyphenyl)pyridin-2-yl]amino}pyridin-4-yl)methyl](methyl)oxido-λ^6-sulfanylidene}acetamide] | 4 nM | 35 nM | 43 nM | 68 nM | – | –
COc1cc(F)ccc1-c1cc(Nc2cc(CS(C)(=N)=O)cc(C(F)(F)F)n2)ncc1F (racemic) [Example 21, (rac)-5-Fluoro-4-(4-fluoro-2-methoxyphenyl)-N-{4-[(S-methylsulfonimidoyl)methyl]-6-(trifluoromethyl)pyridin-2-yl}pyridin-2-amine] | 2 nM | 30 nM | 32 nM | 38 nM | – | –
CCOc1cc(F)ccc1-c1cc(Nc2cc(CS(C)(=N)=O)cc(F)n2)ncc1F (racemic) [Example 26, (rac)-4-(2-Ethoxy-4-fluorophenyl)-5-fluoro-N-{6-fluoro-4-[(S-methylsulfonimidoyl)methyl]pyridin-2-yl}pyridin-2-amine] | 4 nM | 49 nM | 86 nM | 150 nM | – | –
CCOc1cc(F)ccc1-c1cc(Nc2cc(CS(C)(=O)=NC(=O)C(F)(F)F)cc(F)n2)ncc1F (racemic) [Example 27, (rac)-N-{[(2-{[4-(2-Ethoxy-4-fluoro-phenyl)-5-fluoropyridin-2-yl]amino}-6-fluoropyridin-4-yl)methyl]-(methyl)oxido-λ^6-sulfanylidene}-2,2,2-trifluoroacetamide] | 22 nM | 110 nM | 130 nM | 150 nM | – | –
CCS(=N)(=O)Cc1ccnc(Nc2cc(-c3ccc(F)cc3OC)c(F)cn2)c1 (racemic) [Example 30, (rac)-N-{4-[(S-Ethylsulfonimidoyl)-methyl]pyridin-2-yl}-5-fluoro-4-(4-fluoro-2-methoxyphenyl)pyridin-2-amine] | 5 nM | 74 nM | 52 nM | 120 nM | – | –
COc1cc(F)ccc1-c1cc(Nc2cc(CS(C)(=O)=NC#N)ccn2)ncc1F (single isomer, unassigned) [Example 10, {[(2-{[5-Fluoro-4-(4-fluoro-2-methoxyphenyl)pyridin-2-yl]amino}pyridin-4-yl)methyl](methyl)oxido-λ^6-sulfanylidene}cyanamide] | 1 nM | 32 nM | 38 nM | 63 nM | – | –
COc1cc(F)ccc1-c1cc(Nc2cc(CS(C)(=N)=O)cc(C(F)(F)F)n2)ncc1F (single isomer, unassigned; (+)) [Example 22, (+)-5-Fluoro-4-(4-fluoro-2-methoxyphenyl)-N-{4-[(S-methylsulfonimidoyl)methyl]-6-(trifluoromethyl)pyridin-2-yl}pyridin-2-amine] | 1 nM | 30 nM | 38 nM | 51 nM | – | –
COc1cc(F)ccc1-c1cc(Nc2cc(CS(C)(=O)=NC(=O)C(F)(F)F)cc(C(F)(F)F)n2)ncc1F (single isomer, unassigned; (+)) [Example 24, (+)-2,2,2-Trifluoro-N-[{[2-{[5-fluoro-4-(4-fluoro-2-methoxyphenyl)pyridin-2-yl]amino}-6-(trifluoromethyl)-pyridin-4-yl]methyl}(methyl)oxido-λ^6-sulfanylidene]acetamide] | 27 nM | 30 nM | 41 nM | 43 nM | – | –
CCOc1cc(F)ccc1-c1cc(Nc2cc(CS(C)(=N)=O)cc(F)n2)ncc1F (single isomer, unassigned; (+)) [Example 28, (+)-4-(2-Ethoxy-4-fluorophenyl)-5-fluoro-N-{6-fluoro-4-[(S-methylsulfonimidoyl)methyl]pyridin-2-yl}pyridin-2-amine] | 4 nM | 120 nM | 120 nM | 150 nM | – | –
COc1cc(F)ccc1-c1cc(Nc2cc(CS(C)(=N)=O)cc(C)n2)ncc1F (single isomer, unassigned; (+)) [Example 32, (+)-5-Fluoro-4-(4-fluoro-2-methoxyphenyl)-N-{6-methyl-4-[(S-methylsulfonimidoyl)methyl]pyridin-2-yl}pyridin-2-amine] | 2 nM | 53 nM | 40 nM | 98 nM | – | –
COc1cc(F)ccc1-c1cc(Nc2cc(CS(C)(=N)=O)cc(F)n2)ncc1F (single isomer, unassigned; (-)) [Example 20, (−)-5-Fluoro-4-(4-fluoro-2-methoxyphenyl)-N-{6-fluoro-4-[(S-methylsulfonimidoyl)methyl]pyridin-2-yl}pyridin-2-amine] | 1 nM | – | 45 nM | – | 38 nM | 54 nM
